A word on the IC50: it is the concentration needed to halve the response being measured.

For the assay, the target named is T1, BACE2 (Homo sapiens, UniProt Q9Y5Z0).
T1 construct: BACE2 enzyme ectodomain (derived from plasmid “pET17b-T7-hu proBACE2”) was prepared as described in Ostermann et al; T7 tag (N); made in house
T1 sequence (Q9Y5Z0 21-473 limits assumed): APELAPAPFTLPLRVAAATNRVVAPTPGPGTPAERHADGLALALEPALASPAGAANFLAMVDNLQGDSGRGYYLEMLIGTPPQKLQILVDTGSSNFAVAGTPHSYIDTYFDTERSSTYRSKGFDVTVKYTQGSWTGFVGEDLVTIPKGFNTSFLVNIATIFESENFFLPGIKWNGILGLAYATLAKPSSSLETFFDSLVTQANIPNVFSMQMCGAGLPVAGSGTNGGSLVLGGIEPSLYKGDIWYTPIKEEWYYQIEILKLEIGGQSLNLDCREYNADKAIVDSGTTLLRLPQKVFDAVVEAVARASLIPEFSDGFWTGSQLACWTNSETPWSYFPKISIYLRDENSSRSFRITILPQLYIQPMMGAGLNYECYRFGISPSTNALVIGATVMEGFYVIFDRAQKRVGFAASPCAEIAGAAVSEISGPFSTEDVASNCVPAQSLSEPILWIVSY
As to the kind of experiment: Fluorescent-peptide cleavage assay for BACE2 inhibition. The assay is classed as biochemical. To be noted: BACE2 enzyme ectodomain, fluorescent peptide WS EVNLD AEFRC-MR121, assay buffer pH 4.5, room temperature. The method, boiled down:
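Pro-enzyme BACE2 was activated at 80 nM for 1 h at room temperature in 100 mM Na-acetate, 20 mM EDTA, 0.05% BSA, pH 4.5, then preincubated 10 min with compound. IC50 from sigmoidal dose-response fit.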

`CN1C(=O)C[C@@](C)(c2cccc(NC(=O)c3nc(Cl)ccc3C(F)(F)F)c2)N=C1N` [Example 72, 6-Chloro-3-trifluoromethyl-pyridine-2-carboxylic acid [3-((S)-2-amino-1,4-dimethyl-6-oxo-1,4,5,6-tetrahydro-pyrimidin-4-yl)-phenyl]-amide] showed an IC50 of 1520 nM.

Regarding `CN1C(=O)C[C@@](C)(c2cccc(NC(=O)c3ncc(Cl)cn3)c2)N=C1N` [Example 20, 5-Chloro-pyrimidine-2-carboxylic acid [3-((S)-2-amino-1,4-dimethyl-6-oxo-1,4,5,6-tetrahydro-pyrimidin-4-yl)-phenyl]amide], half-maximal inhibition (IC50) was put at 6 nM.

As for `Cc1nc(C)c(C(=O)Nc2cccc([C@]3(C)CC(=O)N(C)C(N)=N3)c2)o1` [Example 5, 2,4-Dimethyl-oxazole-5-carboxylic acid [3-((S)-2-amino-1,4-dimethyl-6-oxo-1,4,5,6-tetrahydro-pyrimidin-4-yl)-phenyl]amide], the concentration for half-maximal inhibition (IC50) turned out to be 121 nM. This IC50 is about 20-fold higher than that of the compound before.

Turning to `CN1C(=O)C[C@@](C)(c2cccc(NC(=O)c3ccc(Cl)cc3)c2)N=C1N` [Example 18, N-[3-((S)-2-Amino-1,4-dimethyl-6-oxo-1,4,5,6-tetrahydro-pyrimidin-4-yl)-phenyl]-4-chloro-benzamide], 50 nM corresponded to half-maximal inhibition (IC50).

`CN1C(=O)C[C@@](C)(c2cccc(NC(=O)c3ccc(C#N)cn3)c2)N=C1N` [Example 15, 5-Cyano-pyridine-2-carboxylic acid [3-((S)-2-amino-1,4-dimethyl-6-oxo-1,4,5,6-tetrahydro-pyrimidin-4-yl)-phenyl]amide] registered an IC50 of 10 nM.

Consider `Cc1ccc(C(=O)Nc2cccc([C@]3(C)CC(=O)N(C)C(N)=N3)c2)cc1` [Example 17, N-[3-((S)-2-Amino-1,4-dimethyl-6-oxo-1,4,5,6-tetrahydro-pyrimidin-4-yl)-phenyl]-4-methyl-benzamide], for which the IC50 turned out to be 120 nM.

For `CN1C(=O)C(C)(C)[C@@](C)(c2cc(NC(=O)c3cn4cc(Cl)ccc4n3)ccc2F)N=C1N` [Example 120, 6-Chloro-imidazo[1,2-a]pyridine-2-carboxylic acid [3-((S)-2-amino-1,4,5,5-tetramethyl-6-oxo-1,4,5,6-tetrahydro-pyrimidin-4-yl)-4-fluoro-phenyl]amide], the IC50 was 43 nM. Compared with the last compound, the IC50 is about 2.8-fold lower.

Regarding `CN1C(=N)N[C@](C)(c2cc(NC(=O)c3ccc(Cl)cn3)ccc2F)CC1=O` [Example 45, 5-Chloro-pyridine-2-carboxylic acid [3-((S)-2-amino-1,4-dimethyl-6-oxo-1,4,5,6-tetrahydro-pyrimidin-4-yl)-4-fluoro-phenyl]amide], the IC50 was 7 nM. Compared with the last compound, the IC50 is about 6.1-fold lower.

`CN1C(=O)C[C@@](C)(c2cccc(NC(=O)c3ccc(OCC(F)(F)F)cn3)c2)N=C1N` [Example 63, 5-(2,2,2-Trifluoro-ethoxy)-pyridine-2-carboxylic acid [3-((S)-2-amino-1,4-dimethyl-6-oxo-1,4,5,6-tetrahydro-pyrimidin-4-yl)-phenyl]-amide] came in with an IC50 of 60 nM. This IC50 lies about 8.6-fold higher than the previous one.

Compound `CCCOc1cccnc1C(=O)Nc1cccc([C@]2(C)CC(=O)N(C)C(N)=N2)c1` [Example 55, 3-Propoxy-pyridine-2-carboxylic acid [3-((S)-2-amino-1,4-dimethyl-6-oxo-1,4,5,6-tetrahydro-pyrimidin-4-yl)-phenyl]-amide] gave an IC50 of 349 nM.

The compound `Cc1cc(C(=O)Nc2ccc(F)c([C@@]3(C)N=C(N)N(C)C(=O)C3(C)C)c2)no1` [Example 116, 5-Methyl-isoxazole-3-carboxylic acid [3-((S)-2-amino-1,4,5,5-tetramethyl-6-oxo-1,4,5,6-tetrahydro-pyrimidin-4-yl)-4-fluoro-phenyl]amide] gave an IC50 of 840 nM.

For `COc1cccnc1C(=O)Nc1cccc([C@]2(C)CC(=O)N(C)C(N)=N2)c1` [Example 65, 3-Methoxy-pyridine-2-carboxylic acid [3-((S)-2-amino-1,4-dimethyl-6-oxo-1,4,5,6-tetrahydro-pyrimidin-4-yl)-phenyl]-amide], the IC50 was 160 nM.

With `CN1C(=O)C(C)(C)[C@@](C)(c2cc(NC(=O)c3ccc(C(F)(F)F)cn3)ccc2F)N=C1N` [Example 110, 5-Trifluoromethyl-pyridine-2-carboxylic acid [3-((S)-2-amino-1,4,5,5-tetramethyl-6-oxo-1,4,5,6-tetrahydro-pyrimidin-4-yl)-4-fluoro-phenyl]amide], half-maximal inhibition (IC50) was put at 20 nM.

With `Cc1cc(Cl)cnc1C(=O)Nc1cccc([C@@]2(C)N=C(N)N(C)C(=O)C2(C)C)c1` [Example 95, 5-Chloro-3-methyl-pyridine-2-carboxylic acid [3-((R)-2-amino-1,4,5,5-tetramethyl-6-oxo-1,4,5,6-tetrahydro-pyrimidin-4-yl)-phenyl]amide], the concentration for half-maximal inhibition (IC50) amounted to 19 nM.

As to `Cc1cc(C(=O)Nc2cccc([C@]3(C)CC(=O)N(C)C(N)=N3)c2)n(C2CC2)n1` [Example 79, 2-Cyclopropyl-5-methyl-2H-pyrazole-3-carboxylic acid [3-((S)-2-amino-1,4-dimethyl-6-oxo-1,4,5,6-tetrahydro-pyrimidin-4-yl)-phenyl]-amide], the IC50 was found to be 190 nM.

Compound `Cc1cc(C(=O)Nc2cccc([C@]3(C)CC(=O)N(C)C(N)=N3)c2)on1` [Example 6, 3-Methyl-isoxazole-5-carboxylic acid [3-((S)-2-amino-1,4-dimethyl-6-oxo-1,4,5,6-tetrahydro-pyrimidin-4-yl)-phenyl]amide] showed an IC50 of 307 nM.

Consider `CN1C(=O)C(C)(C)[C@@](C)(c2cc(NC(=O)c3ccc(OC(F)F)cn3)ccc2F)N=C1N` [Example 103, 5-Difluoromethoxy-pyridine-2-carboxylic acid [3-((S)-2-amino-1,4,5,5-tetramethyl-6-oxo-1,4,5,6-tetrahydro-pyrimidin-4-yl)-4-fluoro-phenyl]amide], for which half-maximal inhibition (IC50) required 25 nM.

`CN1C(=O)C[C@@](C)(c2cccc(NC(=O)c3ncccc3Sc3ccccc3)c2)N=C1N` [Example 61, 3-Phenylsulfanyl-pyridine-2-carboxylic acid [3-((S)-2-amino-1,4-dimethyl-6-oxo-1,4,5,6-tetrahydro-pyrimidin-4-yl)-phenyl]-amide]: the 50% inhibitory concentration (IC50) is 240 nM. This IC50 lies about 9.6-fold higher than the previous one.

In turn, `CN1C(=O)C[C@@](C)(c2cccc(NC(=O)c3ccccc3-c3ncc[nH]3)c2)N=C1N` [Example 80, N-[3-((S)-2-Amino-1,4-dimethyl-6-oxo-1,4,5,6-tetrahydro-pyrimidin-4-yl)-phenyl]-2-(1H-imidazol-2-yl)-benzamide] showed an IC50 of 2100 nM.

For `CN1C(=O)C(C)(C)[C@@](C)(c2cc(NC(=O)c3ccc(Cl)cn3)ccc2Cl)N=C1N` [Example 126, 5-Chloro-pyridine-2-carboxylic acid [3-((S)-2-amino-1,4,5,5-tetramethyl-6-oxo-1,4,5,6-tetrahydro-pyrimidin-4-yl)-4-chloro-phenyl]amide], the IC50 stood at 36 nM.

On to `COc1cccnc1C(=O)Nc1cccc([C@@]2(C)N=C(N)N(C)C(=O)C2(C)C)c1` [Example 93, 3-Methoxy-pyridine-2-carboxylic acid [3-((R)-2-amino-1,4,5,5-tetramethyl-6-oxo-1,4,5,6-tetrahydro-pyrimidin-4-yl)-phenyl]amide], for which half-maximal inhibition (IC50) was put at 158 nM.

Turning to `Cc1nn(C)cc1C(=O)Nc1cccc([C@]2(C)CC(=O)N(C)C(N)=N2)c1` [Example 77, 1,3-Dimethyl-1H-pyrazole-4-carboxylic acid [3-((S)-2-amino-1,4-dimethyl-6-oxo-1,4,5,6-tetrahydro-pyrimidin-4-yl)-phenyl]-amide], the IC50 amounted to 1580 nM.

For the compound `CN1C(=O)C[C@@](C)(c2cccc(NC(=O)c3ccc(C(F)(F)F)cn3)c2)N=C1N` [Example 11, 5-Trifluoromethyl-pyridine-2-carboxylic acid [3-((S)-2-amino-1,4-dimethyl-6-oxo-1,4,5,6-tetrahydro-pyrimidin-4-yl)-phenyl]amide], half-maximal inhibition (IC50) required 28 nM. Against the preceding compound, the IC50 is about 56-fold lower.

Compound `CN1C(=O)C(C)(C)[C@@](C)(c2cc(NC(=O)c3nccn3C)ccc2F)N=C1N` [Example 111, 1-Methyl-1H-imidazole-2-carboxylic acid [3-((S)-2-amino-1,4,5,5-tetramethyl-6-oxo-1,4,5,6-tetrahydro-pyrimidin-4-yl)-4-fluoro-phenyl]amide] had an IC50 of 190 nM.

In turn, `CN1C(=O)C[C@@](C)(c2cccc(NC(=O)c3cc4ccccc4s3)c2)N=C1N` [Example 68, Benzo[b]thiophene-2-carboxylic acid [3-((S)-2-amino-1,4-dimethyl-6-oxo-1,4,5,6-tetrahydro-pyrimidin-4-yl)-phenyl]-amide] had a half-maximal inhibitory concentration (IC50) of 102 nM.

Compound `CN1C(=O)C[C@@](C)(c2cccc(NC(=O)c3cccnc3)c2)N=C1N` [Example 33, N-[3-((S)-2-Amino-1,4-dimethyl-6-oxo-1,4,5,6-tetrahydro-pyrimidin-4-yl)-phenyl]-nicotinamide] came in with an IC50 of 1100 nM.

In the case of `CN1C(=O)C[C@@](C)(c2cccc(NC(=O)c3ncc(Cl)cc3Cl)c2)N=C1N` [Example 64, 3,5-Dichloro-pyridine-2-carboxylic acid [3-((S)-2-amino-1,4-dimethyl-6-oxo-1,4,5,6-tetrahydro-pyrimidin-4-yl)-phenyl]-amide], the midpoint of inhibition, the IC50, lay at 60 nM. This IC50 is about 18-fold lower than that of the compound before.

(Values after US8461160B2, “Dihydropyrimidinones” (Hoffmann-La Roche, Inc., priority 2009, dated 2013).)
